Test [1] addresses T1, AR (cytosol from LnCaP cells) (Homo sapiens, UniProt P10275, T878A).
T1 sequence (P10275 1-920 T878A): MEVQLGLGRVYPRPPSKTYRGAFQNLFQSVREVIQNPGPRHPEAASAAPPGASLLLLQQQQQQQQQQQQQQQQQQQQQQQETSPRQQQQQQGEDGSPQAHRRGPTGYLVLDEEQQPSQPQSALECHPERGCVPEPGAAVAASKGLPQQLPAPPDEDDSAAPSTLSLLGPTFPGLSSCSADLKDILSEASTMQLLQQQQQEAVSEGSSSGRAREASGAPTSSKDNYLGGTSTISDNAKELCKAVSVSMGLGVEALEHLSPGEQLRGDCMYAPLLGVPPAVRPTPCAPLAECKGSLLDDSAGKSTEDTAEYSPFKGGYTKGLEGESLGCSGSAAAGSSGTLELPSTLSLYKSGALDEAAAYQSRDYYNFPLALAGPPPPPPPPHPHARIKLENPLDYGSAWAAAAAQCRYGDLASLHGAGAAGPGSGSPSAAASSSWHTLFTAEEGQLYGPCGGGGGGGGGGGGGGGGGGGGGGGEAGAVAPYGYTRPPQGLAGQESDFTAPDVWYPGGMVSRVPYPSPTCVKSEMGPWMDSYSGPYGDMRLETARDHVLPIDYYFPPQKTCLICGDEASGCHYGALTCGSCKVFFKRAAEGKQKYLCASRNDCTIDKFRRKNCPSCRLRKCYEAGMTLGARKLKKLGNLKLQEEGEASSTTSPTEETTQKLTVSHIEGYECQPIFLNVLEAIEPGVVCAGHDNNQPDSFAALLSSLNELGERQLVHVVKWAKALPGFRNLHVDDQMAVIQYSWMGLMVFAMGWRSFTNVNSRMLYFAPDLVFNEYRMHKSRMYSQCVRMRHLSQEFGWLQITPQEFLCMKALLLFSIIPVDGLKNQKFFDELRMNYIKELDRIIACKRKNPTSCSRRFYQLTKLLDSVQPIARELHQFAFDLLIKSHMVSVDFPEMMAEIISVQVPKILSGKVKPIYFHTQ
The experiment in a line: AR binding assay (3H-R1881 displacement).
Procedure: The plate was then centrifuged at 3000 rpm for 30 minutes at 4° C.

In test [2] the test system is IEC6 cells. The experiment in a line: Cell viability assay (CellTiterGlo). The conditions noted are these: Rattus norvegicus, IEC-6, 144 h, read-out: IEC-6 (IC50, nM).
For test [3], the target named is T2, Progesterone Receptor (PR)-LBD and coactivator peptide (Homo sapiens, UniProt P06401).
T2 sequence (P06401 679-913 limits assumed): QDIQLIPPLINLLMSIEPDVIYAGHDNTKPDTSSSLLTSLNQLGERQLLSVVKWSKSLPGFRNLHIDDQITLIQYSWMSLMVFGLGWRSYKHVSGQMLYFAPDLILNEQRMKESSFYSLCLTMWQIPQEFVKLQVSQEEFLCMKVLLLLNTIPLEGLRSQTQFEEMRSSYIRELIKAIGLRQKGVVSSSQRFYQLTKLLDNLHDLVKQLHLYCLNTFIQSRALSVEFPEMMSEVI
The experiment in a line: PR coactivator antagonist assay. Particulars: 2.5 nM PR-LBD, 10 nM progesterone-induced fluorescence response.

Test [4] addresses T3, GR (cytosol from IM-9 cells) (Homo sapiens, UniProt P04150).
T3 sequence (P04150 1-777): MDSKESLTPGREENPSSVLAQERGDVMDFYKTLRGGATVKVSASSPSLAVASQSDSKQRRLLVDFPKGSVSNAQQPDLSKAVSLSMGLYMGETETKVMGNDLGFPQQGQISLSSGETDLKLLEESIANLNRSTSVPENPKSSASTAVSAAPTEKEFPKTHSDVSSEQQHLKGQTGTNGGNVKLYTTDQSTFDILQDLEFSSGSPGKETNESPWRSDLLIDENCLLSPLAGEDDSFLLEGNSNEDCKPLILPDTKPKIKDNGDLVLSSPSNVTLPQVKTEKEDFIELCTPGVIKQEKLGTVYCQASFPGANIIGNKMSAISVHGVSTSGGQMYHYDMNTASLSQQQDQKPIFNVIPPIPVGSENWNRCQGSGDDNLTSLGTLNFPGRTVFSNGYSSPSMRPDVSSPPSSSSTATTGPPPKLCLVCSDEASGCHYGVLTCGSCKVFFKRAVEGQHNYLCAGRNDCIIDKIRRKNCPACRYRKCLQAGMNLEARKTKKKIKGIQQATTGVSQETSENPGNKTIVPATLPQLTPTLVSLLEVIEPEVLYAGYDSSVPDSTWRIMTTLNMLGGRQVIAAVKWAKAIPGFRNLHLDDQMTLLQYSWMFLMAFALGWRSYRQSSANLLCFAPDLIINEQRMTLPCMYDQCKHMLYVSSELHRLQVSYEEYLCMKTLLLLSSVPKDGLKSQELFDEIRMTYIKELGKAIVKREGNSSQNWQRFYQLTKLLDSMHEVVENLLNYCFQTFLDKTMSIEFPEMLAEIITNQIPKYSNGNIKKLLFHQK
The experiment in a line: GR binding assay (3H-Dexamethasone displacement).

In test [5] the test system is T47D cells. The experiment in a line: Cell viability assay (CellTiterGlo). The class given is cell-based. Particulars: Homo sapiens, 144 h, read-out: T47D (IC50, nM). A general note: In ATP-based viability assays light output follows the ATP content of the culture.
Test [6] has as its target T4, Progesterone PR-B receptors from human breast carcinoma T47D cells (Homo sapiens, UniProt P06401).
T4 sequence (P06401 1-933): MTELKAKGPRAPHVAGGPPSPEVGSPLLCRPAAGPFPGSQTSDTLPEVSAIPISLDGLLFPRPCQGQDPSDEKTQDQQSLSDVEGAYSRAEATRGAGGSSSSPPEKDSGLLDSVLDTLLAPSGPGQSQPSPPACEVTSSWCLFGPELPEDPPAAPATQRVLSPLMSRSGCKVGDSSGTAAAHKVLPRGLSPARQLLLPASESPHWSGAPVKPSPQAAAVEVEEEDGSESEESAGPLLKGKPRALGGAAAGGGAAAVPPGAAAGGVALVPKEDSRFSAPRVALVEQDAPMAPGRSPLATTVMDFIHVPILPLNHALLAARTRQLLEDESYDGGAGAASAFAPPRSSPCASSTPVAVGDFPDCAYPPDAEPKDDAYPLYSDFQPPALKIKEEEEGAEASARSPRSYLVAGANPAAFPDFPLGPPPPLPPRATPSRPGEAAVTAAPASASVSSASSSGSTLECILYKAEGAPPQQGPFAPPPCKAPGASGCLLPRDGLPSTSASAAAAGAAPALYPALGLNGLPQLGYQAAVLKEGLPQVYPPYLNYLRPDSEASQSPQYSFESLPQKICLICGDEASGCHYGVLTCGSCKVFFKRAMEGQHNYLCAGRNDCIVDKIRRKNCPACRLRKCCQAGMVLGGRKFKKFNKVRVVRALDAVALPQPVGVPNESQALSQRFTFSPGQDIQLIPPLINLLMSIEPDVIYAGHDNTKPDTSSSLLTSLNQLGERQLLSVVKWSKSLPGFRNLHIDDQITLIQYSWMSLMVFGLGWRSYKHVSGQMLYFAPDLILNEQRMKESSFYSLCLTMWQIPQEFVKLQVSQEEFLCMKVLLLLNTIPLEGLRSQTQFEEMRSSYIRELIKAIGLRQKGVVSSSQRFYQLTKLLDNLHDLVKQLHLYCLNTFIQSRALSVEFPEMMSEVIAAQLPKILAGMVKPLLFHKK
The experiment in a line: PR binding assay ([3H] Progesterone displacement).

In test [7] the test system is LNCap cells. Description: Cell viability assay (CellTiterGlo). The class given is cell-based. The conditions noted are these: Homo sapiens, 144 h, read-out: LNCap (IC50, nM).
Test [8] addresses T5, ligand binding domain of the glucocorticoid receptor (HEK293 cells stably expressing) (Homo sapiens, UniProt P04150).
T5 sequence (P04150 524-758 limits assumed): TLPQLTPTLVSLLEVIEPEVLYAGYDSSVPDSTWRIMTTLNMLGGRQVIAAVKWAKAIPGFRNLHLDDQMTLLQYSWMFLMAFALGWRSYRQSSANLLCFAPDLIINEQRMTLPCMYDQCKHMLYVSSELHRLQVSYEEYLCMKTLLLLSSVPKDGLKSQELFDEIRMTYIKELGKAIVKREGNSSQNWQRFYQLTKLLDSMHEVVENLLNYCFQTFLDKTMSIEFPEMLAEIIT
The experiment in a line: GR antagonism assay (luciferase reporter). In general terms: In a reporter assay the amount or activity of a reporter protein is the signal.

In general, IC50 refers to the midpoint of a concentration-inhibition curve. In the case of `CC[C@@]1(O)C(=O)OCc2c1cc1n(c2=O)Cc2cc3c(CN(C)C)c(OC(=O)N4C5CC4CN(CCCCCCN(C)c4ccc([C@H]6C[C@@]7(C)[C@@H](CC[C@]7(OC(C)=O)C(C)=O)[C@@H]7CCC8=CC(=O)CCC8=C76)cc4)C5)ccc3nc2-1` [Compound 3, (S)-10-((Dimethylamino)methyl)-4-ethyl-4-hydroxy-3,14-dioxo-3,4,12,14-tetrahydro-1H-pyrano[3′,4′:6,7]indolizino[1,2-b]quinolin-9-yl 3-(6-((4-((8S,11R,13S,14S,17R)-17-acetoxy-17-acetyl-13-methyl-3-oxo-2,3,6,7,8,11,12,13,14,15,16,17-dodecahydro-1H-cyclopenta[a]phenanthren-11-yl)phenyl)(methyl)amino)hexyl)-3,6-diazabicyclo[3.1.1]heptane-6-carboxylate], the IC50 was 10 to 100 nM in test [1]; over 1000 nM in test [2]; under 10 nM in test [4]; 10 to 100 nM in test [5]; under 10 nM in test [6]; 101 to 1000 nM in test [7]. The same compound yielded an IC50 in test [8] of 10 to 100 nM. Besides, in test [3], the PR antagonism entry is on record as “a (IC50 =< 10 nM)”.

Consider `CC[C@@]1(O)C(=O)OCc2c1cc1n(c2=O)Cc2cc3c(CN4CCN(C)CC4)c(OC(=O)N4CCN(CCCCCCN(C)c5ccc([C@H]6C[C@@]7(C)[C@@H](CC[C@]7(OC(C)=O)C(C)=O)[C@@H]7CCC8=CC(=O)CCC8=C76)cc5)CC4)ccc3nc2-1` [Compound 5, (S)-4-Ethyl-4-hydroxy-10-((4-methylpiperazin-1-yl)methyl)-3,14-dioxo-3,4,12,14-tetrahydro-1H-pyrano[3′,4′:6,7]indolizino[1,2-b]quinolin-9-yl 4-(6-((4-((8S,11R,13S,14S,17R)-17-acetoxy-17-acetyl-13-methyl-3-oxo-2,3,6,7,8,11,12,13,14,15,16,17-dodecahydro-1H-cyclopenta[a]phenanthren-11-yl)phenyl)(methyl)amino)hexyl)piperazine-1-carboxylate], for which the IC50 is 10 to 100 nM in test [1]; over 1000 nM in test [2]; under 10 nM in test [4]; 101 to 1000 nM in test [5]; under 10 nM in test [6]; 101 to 1000 nM in test [7]. The IC50 in test [8] lay within 10 to 100 nM. Moreover, the PR antagonism entry in test [3] is on record as “a (IC50 =< 10 nM)”.

Consider `CC[C@@]1(O)C(=O)OCc2c1cc1n(c2=O)Cc2cc3c(CN(C)C)c(OC(=O)N4CCN(CCCCCCCN(C)c5ccc([C@H]6C[C@@]7(C)[C@@H](CC[C@]7(OC(C)=O)C(C)=O)[C@@H]7CCC8=CC(=O)CCC8=C76)cc5)CC4)ccc3nc2-1` [Compound 6, (S)-10-((Dimethylamino)methyl)-4-ethyl-4-hydroxy-3,14-dioxo-3,4,12,14-tetrahydro-1H-pyrano[3′,4′:6,7]indolizino[1,2-b]quinolin-9-yl 4-(7-((4-((8S,11R,13S,14S,17R)-17-acetoxy-17-acetyl-13-methyl-3-oxo-2,3,6,7,8,11,12,13,14,15,16,17-dodecahydro-1H-cyclopenta[a]phenanthren-11-yl)phenyl)(methyl)amino)heptyl)piperazine-1-carboxylate], for which the IC50 was 10 to 100 nM in test [1]; over 1000 nM in test [2]; under 10 nM in test [4]; 10 to 100 nM in test [5]; under 10 nM in test [6]; 101 to 1000 nM in test [7]. Besides, the IC50 in test [8] lay within 10 to 100 nM. In addition, in test [3], the PR antagonism entry is reported as “a (IC50 =< 10 nM)”.

As for `CC[C@@]1(O)C(=O)OCc2c1cc1n(c2=O)Cc2cc3c(CN(C)C)c(OC(=O)N4CCN(CCCCCCCCN(C)c5ccc([C@H]6C[C@@]7(C)[C@@H](CC[C@]7(OC(C)=O)C(C)=O)[C@@H]7CCC8=CC(=O)CCC8=C76)cc5)CC4)ccc3nc2-1` [Compound 7, (S)-10-((Dimethylamino)methyl)-4-ethyl-4-hydroxy-3,14-dioxo-3,4,12,14-tetrahydro-1H-pyrano[3′,4′:6,7]indolizino[1,2-b]quinolin-9-yl 4-(8-((4-((8S,11R,13S,14S,17R)-17-acetoxy-17-acetyl-13-methyl-3-oxo-2,3,6,7,8,11,12,13,14,15,16,17-dodecahydro-1H-cyclopenta[a]phenanthren-11-yl)phenyl)(methyl)amino)octyl)piperazine-1-carboxylate], the IC50 in test [1] was 10 to 100 nM; in test [2], over 1000 nM; in test [4], under 10 nM; in test [5] it was 101 to 1000 nM; in test [6], under 10 nM; in test [7] it was 101 to 1000 nM. In test [8], the half-inhibitory concentration (IC50) lay in the range of 10 to 100 nM. Further, in test [3], the PR antagonism result was “a (IC50 =< 10 nM)”.

The values are drawn from US20260102501A1, “ANTI-CANCER NUCLEAR HORMONE RECEPTOR-TARGETING COMPOUNDS” (Nuvation Bio Inc., priority 2022, published 2026).
